Experimental data published in paper PMC5344255, “Design, Synthesis and Biochemical Evaluation of Novel Selective Estrogen Receptor Ligand Conjugates Incorporating an Endoxifen-Combretastatin Hybrid Scaffold” (Biomedicines, 2016).

Experiments:
[1] = tested on: MCF-7 human breast cancer cells; test: MTT assay for antiproliferative effects in MCF-7; format: cell-based
Experimental: (§1) The human breast carcinoma cell line, MCF-7, was purchased from the European Collection of Animal Cell Cultures (ECACC). The cells were maintained in MCF-7 complete medium; consisting of Eagle’s Minimum Essential Medium (MEM) supplemented with 10% (v/v) Foetal Bovine Serum (FBS), 2 mM L-glutamine, 100 μg/mL penicillin/streptomycin and 1% (v/v) non-essential amino acids. Cell cultures were maintained at 37 °C under a humidified atmosphere of 5% CO2/95% O2. The human breast carcinoma cell line, MDA, was purchased from the European Collection of Animal Cell Cultures (ECACC). The cells were maintained in MDA complete medium; consisting of Dulbecco’s Modified Eagle’s Medium (D-MEM) supplemented with 10% (v/v) Foetal Bovine Serum (FBS), 2 mM L-glutamine, 100 μg/mL penicillin/streptomycin. Cell cultures were maintained at 37 °C under a humidified atmosphere of 5% CO2/95% O2. The MTT assay was performed according to the reported protocol. The tetrazolium salt, 3-(4,5-dimethylthiazol-2-yl)-2,5-diphenyltetrazolium bromide (MTT) is taken up only by metabolically active cells and cleaved to form a formazan dye by mitochondrial dehydrogenases. Assays where repeated in three experiments performed in triplicate (unless otherwise stated) and reported results represent the mean value ± standard error mean. Graphs of percentage cell viability versus concentration of the subject compound were processed using PRISM [31].

[2] = HPLC stability study in phosphate buffer; format: physicochemical; conditions: pH values in the range 4–9
Experimental: Analytical high-performance liquid chromatography (HPLC) stability studies were performed using a Symmetry® column (C18, 5 µm, 4.6 × 150 mm), a Waters 2487 Dual Wavelength Absorbance detector, a Waters 1525 binary HPLC pump and a Waters 717 plus Autosampler (Waters Corporation, Milford, MA, USA). Samples were detected at wavelength of 254 nm. All samples were analysed using acetonitrile (80%):water (20%) as the mobile phase over 10 min and a flow rate of 1 mL/min. Stock solutions are prepared by dissolving 5mg of compound in 10 mL of mobile phase. Phosphate buffers at the desired pH values (4, 7.4, and 9) were prepared in accordance with the British Pharmacopoeia monograph 2015. 30 µL of stock solution was diluted with 1 mL of appropriate buffer, shaken and injected immediately. Samples were withdrawn and analysed at time intervals of t = 0 min, 5 min, 30 min, 60 min, 90 min, 120 min, 24 h and 48 h.

[3] = tested on: MCF-7 human breast cancer cells; test: Lactate dehydrogenase (LDH) cytotoxicity assay in MCF-7; format: cell-based; conditions: % cell lysis at 10 µM
Experimental: (§2) In this assay, the release of cytoplasmic lactate dehydrogenase (LDH) is used as a measure of cell lysis. MCF-7 and MDA-MB-231 cells were seeded at a density of 1 × 10^4 cells/well in a 96-well plate and incubated for 24 h. The cells were then dosed with 2 μL volumes of the test compounds, over the concentration range 1 nM–50 μM. Cytotoxicity was determined using the CytoTox 96 nonradioactive cytotoxicity assay (Promega, Madison, WI, USA) following the manufacturer’s protocol.

[4] = tested on: MDA-MB-231 human breast cancer cells; test: MTT assay for antiproliferative effects in MDA-MB-231; format: cell-based; conditions: MDA-MB-231, MTT assay
Experimental: as §1, with “Cell cultures were maintained at 37 °C under a humidified atmosphere of 5% CO2/95% O2.” left out, “Assays where repeated in three experiments performed in triplicate (unless otherwise stated) and reported results represent the mean value ± standard error mean.” left out

[5] = tested on: MDA-MB-231 human breast cancer cells; test: Lactate dehydrogenase (LDH) cytotoxicity assay in MDA-MB-231; format: cell-based; conditions: % cell lysis at 10 μM
Experimental: as §2

[6] = tested on: Ishikawa cell line of human endometrial adenocarcinoma cells; test: Ishikawa assay, estrogen stimulation of alkaline phosphatase activity; format: cell-based
Experimental: The Ishikawa assay is used to measure estrogen stimulation of alkaline phosphatase enzyme activity (AlkP) by the Ishikawa cell line of human endometrial adenocarcinoma cells. The Ishikawa assay provides a measure of the agonist activity of a compound. […] The assay was carried out following the method of Littlefield et al.. The batch of Ishikawa cells were obtained as a gift from Professor R. Hochberg—who developed the alkaline phosphatase assay in Yale University, CT, USA.
The Ishikawa assay is used to measure estrogen stimulation of alkaline phosphatase enzyme activity (AlkP) by the Ishikawa cell line of human endometrial adenocarcinoma cells. […] The conjugate was dosed in duplicate.

[7] = Homo sapiens, MCF7, MCF-7, MTT assay, mean of at least three experiments in triplicate
[8] = Homo sapiens, MCF7, MCF-7, MTT assay, values in nM

| SMILES | IC50 [1, 7] [nM] | IC50 [4] [nM] | melting point [°C] | % Cell Death at 10 μM [3] [%] | % Cell Death at 10 μM [5] [%] | also measured |
| --- | --- | --- | --- | --- | --- | --- |
| CCC(=C(c1ccc(O)cc1)c1ccc(OCCN(C)C(=O)/C(=C/c2ccc(OC)c(O)c2)c2cc(OC)c(OC)c(OC)c2)cc1)c1ccccc1 (mixture of isomers) [Compound 27, (E)-3-(3-Hydroxy-4-methoxyphenyl)-N-(2-{4-[(E/Z)-1-(4-hydroxyphenyl)-2-phenylbut-1-enyl]phenoxy}ethyl)-N-methyl-2-(3,4,5-trimethoxyphenyl) acrylamide] | 33 | 2670 | – | 10 | 17 | IC50 [1, 8]: 0.033 nM; half-life at 14.6 µg/mL [2]: > 24 h |
| CCC(=C(c1ccc(O)cc1)c1ccc(OCCN(C)C(=O)/C(=C/c2cc(OC)c(OC)c(OC)c2)c2ccc(OC)cc2)cc1)c1ccc(O)cc1 (mixture of isomers) [Compound 32, (E)-N-(2-{4-[(E/Z)-1,2-Bis-(4-hydroxyphenyl)but-1-enyl]phenoxy}ethyl)-2-(4-methoxyphenyl)-N-methyl-3-(3,4,5-trimethoxyphenyl)acrylamide] | 41 | 4090 | – | 16 | 0 | half-life at 14.6 µg/mL [2]: > 24 h |
| COc1cc(/C(=C\c2ccc(SC)cc2)C(=O)O)cc(OC)c1OC [Compound 20, (E)-3-(4-Methylsulfanylphenyl)-2-(3,4,5-trimethoxyphenyl)acrylic acid] | 10600 | – | 194 to 196 | – | – | – |
| CC/C(=C(\c1ccccc1)c1ccc(OCCN(C)C)cc1)c1ccccc1 [Tamoxifen, reference compound] | – | – | – | – | 0 | estrogenic activity (alkaline phosphatase stimulation) ([6]; compound dosed individually): displays some estrogenic activity at higher concentrations; estrogen stimulation (alkaline phosphatase) in mixture with estradiol ([6]; dosed with 1 nM estradiol spike): estrogen stimulation at low concentration while a reduction occurs as the concentration of Tamoxifen is increased |
| COc1cc(/C(=C\c2ccc3ccccc3c2)C(=O)O)cc(OC)c1OC [Compound 22, (E)-3-Naphthalen-2-yl-2-(3,4,5-trimethoxyphenyl)acrylic acid] | 15300 | – | 238 to 240 | – | – | – |
| COc1cc(/C(=C\c2ccc(F)cc2)C(=O)O)cc(OC)c1OC [Compound 18, (E)-3-(4-Fluorophenyl)-2-(3,4,5-trimethoxyphenyl)acrylic acid] | > 50000 | – | 211 to 213 | – | – | – |
| COc1ccc(/C(=C\c2cc(OC)c(OC)c(OC)c2)C(=O)N2CCCCC2)cc1 [Compound 47, (E)-2-(4-Methoxyphenyl)-1-(piperidin-1-yl)-3-(3,4,5-trimethoxyphenyl)prop-2-en-1-one] | > 50000 | – | 106 to 108 | – | – | – |
| CCC(=C(c1ccc(O)cc1)c1ccc(OCCN(C)C(=O)/C(=C/c2ccc3c(c2)OCO3)c2ccc(OC)cc2)cc1)c1ccccc1 (mixture of isomers) [Compound 33, (E)-3-Benzo[1,3]dioxol-5-yl-N-(2-{4-[(E/Z)-1-(4-hydroxyphenyl)-2-phenylbut-1-enyl]phenoxy}ethyl)-2-(4-methoxyphenyl)-N-methylacrylamide] | 1470 | 5230 | – | 8 | 0 | – |
| CCC(=C(c1ccc(O)cc1)c1ccc(OCCN(C)C(=O)/C(=C/c2ccc(OC)c(F)c2)c2cc(OC)c(OC)c(OC)c2)cc1)c1ccc(O)cc1 (mixture of isomers) [Compound 44, (E)-N-(2-{4-[(E/Z)-1,2-Bis-(4-hydroxyphenyl)but-1-enyl]phenoxy}ethyl)-3-(3-fluoro-4-methoxyphenyl)-N-methyl-2-(3,4,5-trimethoxyphenyl)acrylamide] | 194 | 1850 | – | 10 | 14 | – |
| COc1ccc(/C=C\c2cc(OC)c(OC)c(OC)c2)cc1O [Compound 26, Combretastatin A-4, reference compound] | 8 | 43 | – | 13 | 4 | IC50 [1, 8]: 8 nM |
| CCC(=C(c1ccc(O)cc1)c1ccc(OCCN(C)C(=O)/C(=C/c2ccc(Br)cc2)c2cc(OC)c(OC)c(OC)c2)cc1)c1ccc(O)cc1 (mixture of isomers) [Compound 42, (E)-N-(2-{4-[(E/Z)-1,2-Bis-(4-hydroxyphenyl)but-1-enyl]phenoxy}ethyl)-3-(4-bromophenyl)-N-methyl-2-(3,4,5-trimethoxyphenyl)acrylamide] | 2350 | > 50000 | – | 7 | 9 | – |

Continued, in another order:

| IC50 [1, 7] [nM] | IC50 [4] [nM] | melting point [°C] | SMILES | % Cell Death at 10 μM [3] [%] | % Cell Death at 10 μM [5] [%] | also measured |
| --- | --- | --- | --- | --- | --- | --- |
| < 10000 | – | 199 to 202 | COc1ccc(/C=C(/C(=O)O)c2cc(OC)c(OC)c(OC)c2)cc1N [Compound 16, (E)-3-(3-Amino-4-methoxyphenyl)-2-(3,4,5-trimethoxyphenyl)acrylic acid] | – | – | IC50 ([1]; MCF-7, MTT assay, mean of at least three experiments in triplicate): 6700 nM |
| 26100 | – | 190 to 193 | COc1cc(/C(=C\c2ccc(C)cc2)C(=O)O)cc(OC)c1OC [Compound 19, (E)-3-p-Tolyl-2-(3,4,5-trimethoxyphenyl)acrylic acid] | – | – | – |
| > 50000 | – | 227 to 230 | COc1cc(/C(=C\c2ccc(Br)cc2)C(=O)O)cc(OC)c1OC [Compound 17, (E)-3-(4-Bromophenyl)-2-(3,4,5-trimethoxyphenyl)acrylic Acid] | – | – | – |
| 1510 | 2160 | – | CCC(=C(c1ccc(O)cc1)c1ccc(OCCN(C)C(=O)/C(=C/c2ccc3ccccc3c2)c2cc(OC)c(OC)c(OC)c2)cc1)c1ccccc1 (mixture of isomers) [Compound 35, (E)-N-(2-{4-[(E/Z)-1-(4-Hydroxyphenyl)-2-phenylbut-1-enyl]phenoxy}ethyl)-N-methyl-3-naphthalen-2-yl-2-(3,4,5-trimethoxyphenyl) acrylamide] | 0 | 0 | – |
| 87 | 30600 | – | CCC(=C(c1ccc(O)cc1)c1ccc(OCCN(C)C(=O)/C(=C/c2ccc(OC)cc2)c2cc(OC)c(OC)c(OC)c2)cc1)c1ccccc1 (mixture of isomers) [Compound 29, (E)-N-(2-{4-[(E/Z)-1-(4-Hydroxyphenyl)-2-phenylbut-1-enyl]phenoxy}-ethyl)-3-(4-methoxyphenyl)-N-methyl-2-(3,4,5-trimethoxyphenyl)acrylamide] | 12 | 2 | – |
